The text below walks through data of US20240409585A1, “MACROCYCLIC IMMUNOMODULATORS” (priority 2021, published 2024).

Bridge positions count the residues as written; N and C are the ends. Square brackets hold non-standard residues; d marks the D form. Peptide text beside a SMILES is read from it. * marks the point of attachment. ξ: configuration not given here. Phe(3-COOH) = N[C@@H](Cc1cccc(C(=O)O)c1)C(=O)O; Phe(4-COOH) = N[C@@H](Cc1ccc(C(=O)O)cc1)C(=O)O; Bip = N[C@@H](Cc1ccc(-c2ccccc2)cc1)C(=O)O; Phe(3-Cl) = N[C@@H](Cc1cccc(Cl)c1)C(=O)O; Phe(3-OMe) = COc1cccc(C[C@H](N)C(=O)O)c1; Phe(3-F) = N[C@@H](Cc1cccc(F)c1)C(=O)O; Phe(3-Me) = Cc1cccc(C[C@H](N)C(=O)O)c1; Phe(4-F) = N[C@@H](Cc1ccc(F)cc1)C(=O)O; 3Pal = N[C@@H](Cc1cccnc1)C(=O)O; 4Pal = N[C@@H](Cc1ccncc1)C(=O)O; 3Thi = N[C@@H](Cc1ccsc1)C(=O)O; Cha = N[C@@H](CC1CCCCC1)C(=O)O; Cit = NC(=O)NCCC[C@H](N)C(=O)O; Thr(3ξ) = CC(O)[C@H](N)C(=O)O; Carboxymethyl = O=C(O)C*; NMeA = CN[C@@H](C)C(=O)O; dNMeA = CN[C@H](C)C(=O)O; Dab = NCC[C@H](N)C(=O)O; Dap = NC[C@H](N)C(=O)O

T1 sequence (Q15116 25-288): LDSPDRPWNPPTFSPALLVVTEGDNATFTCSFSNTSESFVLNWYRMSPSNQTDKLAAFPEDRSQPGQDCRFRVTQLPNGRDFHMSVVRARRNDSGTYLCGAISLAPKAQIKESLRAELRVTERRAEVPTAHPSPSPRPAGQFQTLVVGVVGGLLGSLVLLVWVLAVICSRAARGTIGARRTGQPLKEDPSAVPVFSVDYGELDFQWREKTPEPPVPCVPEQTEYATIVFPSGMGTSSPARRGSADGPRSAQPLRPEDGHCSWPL

One experiment concerns the target T1, PE-labeled human PD-L1-Ig binding to Jurkat cell line over-expressing human PD-1 (Jurkat-PD-1) (Homo sapiens, UniProt Q15116).
T1 construct: expressed in transfected cells; host or cells: Jurkat
In words: Jurkat-PD-1 Cell Binding High-Content Screening Assay (CBA): Method 1. The note with it: Jurkat HPDL1 PD1 IC50 (uM) (Method 1), Jurkat-hPD-1 cells, PE-labeled PD-L1-Ig 20 nM final.
Usually IC50 stands for the concentration that inhibits the measured activity by half. In turn, `CC(C)C[C@@H]1NC(=O)[C@H](CCN)NC(=O)[C@@H](CC(C)C)NC(=O)[C@H](C)N(C)C(=O)[C@H](C(C)C)NC(=O)[C@H](Cc2ccc(-c3ccccc3)cc2)NC(=O)[C@H](C(C)C)NC(=O)[C@H](Cc2c[nH]c3ccccc23)NC(=O)[C@H](CC(=O)O)NC(=O)[C@H](Cc2ccncc2)NC(=O)[C@H](CN)NC(=O)CSC[C@@H](C(=O)N[C@@H](C)C(N)=O)NC(=O)[C@H]([C@@H](C)O)NC(=O)[C@H](C(C)C)NC1=O` [Compound 1542] ({CH2CO}-[Dap][4Pal]DWV[Bip]V[NMeA][dL][Dab]LVTCA-NH2; thioether N-14) registered an IC50 of 0.04 µM.

The same experiment, now with this note: Jurkat-hPD-1 cells, PE-labeled PD-L1-Ig 20 nM final; read-out: Jurkat HPDL1 PD1 IC50 (uM) (Method 1).
Take `CC(=O)NCCCC[C@@H]1NC(=O)[C@H](C(C)C)NC(=O)[C@H](CC2CCCCC2)NC(=O)[C@H](CCN)NC(=O)[C@@H](CC(C)C)NC(=O)[C@H](C)N(C)C(=O)[C@H](CCC(N)=O)NC(=O)[C@H](Cc2ccc(-c3ccccc3)cc2)NC(=O)[C@H](C(C)C)NC(=O)[C@H](Cc2c[nH]c3ccccc23)NC(=O)[C@H](CC(=O)O)NC(=O)[C@H](Cc2ccc(OCC(=O)O)cc2)NC(=O)[C@H](Cc2ccsc2)NC(=O)CSC[C@@H](C(=O)N[C@@H](CCN)C(N)=O)NC1=O` [Compound 2127] ({CH2CO}-[3Thi]Y(Carboxymethyl)DWV[Bip]Q[NMeA][dL][Dab][Cha]VK(Ac)C[Dab]-NH2; thioether N-14): the IC50 turned out to be 0.01 µM.

Turning to `CC(C)C[C@@H]1NC(=O)[C@H](Cc2c[nH]c3ccccc23)NC(=O)[C@H](CC(=O)O)NC(=O)[C@H](Cc2ccc(C(=O)O)cc2)NC(=O)[C@H](Cc2ccccc2)NC(=O)CSC[C@@H](C(=O)NCC(N)=O)NC(=O)[C@H](CO)NC(=O)[C@H](C(C)C)NC(=O)[C@H](CC(C)C)NC(=O)[C@H](CC(N)=O)NC(=O)[C@@H](CC(C)C)NC(=O)[C@H](C)N(C)C(=O)[C@H](C(C)C)NC(=O)[C@H](Cc2ccc(-c3ccccc3)cc2)NC1=O` [Compound 1528] ({CH2CO}-F[Phe(4-COOH)]DWL[Bip]V[NMeA][dL]NLVSCG-NH2; thioether N-14), the half-inhibitory concentration (IC50) amounted to 0.01 µM.

For `CC(C)C[C@@H]1NC(=O)[C@H](Cc2c[nH]c3ccccc23)NC(=O)[C@H](CC(=O)O)NC(=O)[C@H](Cc2cccc(C(=O)O)c2)NC(=O)[C@H](CN)NC(=O)CSC[C@@H](C(=O)NCC(N)=O)NC(=O)[C@H](CO)NC(=O)[C@H](C(C)C)NC(=O)[C@H](CC2CCCCC2)NC(=O)[C@H](CCN)NC(=O)[C@@H](CC(C)C)NC(=O)[C@H](C)N(C)C(=O)[C@H](C(C)C)NC(=O)[C@H](Cc2ccc(-c3ccccc3)cc2)NC1=O` [Compound 1877] ({CH2CO}-[Dap][Phe(3-COOH)]DWL[Bip]V[NMeA][dL][Dab][Cha]VSCG-NH2; thioether N-14), the IC50 was 0.01 µM.

`CC(C)C[C@@H]1NC(=O)[C@H](CCN)NC(=O)[C@@H](CC(C)C)NC(=O)[C@H](C)N(C)C(=O)[C@H](CCCNC(N)=O)NC(=O)[C@H](Cc2ccc(-c3ccccc3)cc2)NC(=O)[C@H](C(C)C)NC(=O)[C@H](Cc2c[nH]c3ccccc23)NC(=O)[C@H](CC(=O)O)NC(=O)[C@H](Cc2ccc(OCC(=O)O)cc2)NC(=O)[C@H](CC(N)=O)NC(=O)CSC[C@@H](C(=O)N[C@@H](C)C(N)=O)NC(=O)[C@H]([C@@H](C)O)NC(=O)[C@H](C(C)C)NC1=O` [Compound 1321] ({CH2CO}-NY(Carboxymethyl)DWV[Bip][Cit][NMeA][dL][Dab]LVTCA-NH2; thioether N-14): the concentration for half-maximal inhibition (IC50) worked out at 0.08 µM.

`CC(C)C[C@@H]1NC(=O)[C@H](Cc2c[nH]c3ccccc23)NC(=O)[C@H](CC(=O)O)NC(=O)[C@H](Cc2ccc(O)cc2)NC(=O)[C@H](Cc2ccccc2)NC(=O)CSC[C@@H](C(=O)N[C@@H](C)C(N)=O)NC(=O)[C@H](CO)NC(=O)[C@H](C(C)C)NC(=O)[C@H](CC(C)C)NC(=O)[C@H](CC(N)=O)NC(=O)[C@@H](CC(C)C)NC(=O)[C@H](C)N(C)C(=O)[C@H](CCCNC(=N)N)NC(=O)[C@H](Cc2ccc(-c3ccccc3)cc2)NC1=O` [Compound 1775] ({CH2CO}-FYDWL[Bip]R[NMeA][dL]NLVSCA-NH2; thioether N-14): the concentration for half-maximal inhibition (IC50) amounted to 0.05 µM.

Regarding `CC(C)C[C@@H]1NC(=O)[C@H](Cc2c[nH]c3ccccc23)NC(=O)[C@H](CC(=O)O)NC(=O)[C@H](Cc2ccc(O)cc2)NC(=O)[C@H](Cc2ccccc2)NC(=O)CSC[C@@H](C(=O)NCC(N)=O)NC(=O)[C@H](CO)NC(=O)[C@H](C(C)C)NC(=O)[C@H](CC(C)C)NC(=O)[C@H](CC(N)=O)NC(=O)[C@H](CCCNC(N)=O)NC(=O)[C@H](C)N(C)C(=O)[C@H](C(C)C)NC(=O)[C@H](Cc2ccc(-c3ccccc3)cc2)NC1=O` [Compound 1812] ({CH2CO}-FYDWL[Bip]V[NMeA][Cit]NLVSCG-NH2; thioether N-14), the half-maximal inhibitory concentration (IC50) turned out to be 0.28 µM.

With `CC(C)C[C@@H]1NC(=O)[C@H](Cc2c[nH]c3ccccc23)NC(=O)[C@H](CC(=O)O)NC(=O)[C@H](Cc2ccc(O)cc2)NC(=O)[C@H](Cc2ccccc2)NC(=O)CSC[C@@H](C(=O)NCC(N)=O)NC(=O)[C@H](CO)NC(=O)[C@H](C(C)C)NC(=O)[C@H](CC(C)C)NC(=O)[C@H](CCN)NC(=O)[C@@H](CC(C)C)NC(=O)[C@H](C)N(C)C(=O)[C@H](CCC(=O)O)NC(=O)[C@H](Cc2ccc(-c3ccccc3)cc2)NC1=O` [Compound 1513] ({CH2CO}-FYDWL[Bip]E[NMeA][dL][Dab]LVSCG-NH2; thioether N-14), the 50% inhibitory concentration (IC50) came out at 0.02 µM.

For the molecule `CC(C)C[C@@H]1NC(=O)[C@H](Cc2c[nH]c3ccccc23)NC(=O)[C@H](CC(=O)O)NC(=O)[C@H](Cc2ccc(O)cc2)NC(=O)[C@H](Cc2ccccc2)NC(=O)CSC[C@@H](C(=O)NCC(N)=O)NC(=O)[C@H](CO)NC(=O)[C@H](C(C)C)NC(=O)[C@H](CC(C)C)NC(=O)[C@H](CC(N)=O)NC(=O)CNC(=O)[C@@H](C)N(C)C(=O)[C@H](C(C)C)NC(=O)[C@H](Cc2ccc(-c3ccccc3)cc2)NC1=O` [Compound 1721] ({CH2CO}-FYDWL[Bip]V[dNMeA]GNLVSCG-NH2; thioether N-14), the 50% inhibitory concentration (IC50) worked out at 0.24 µM.

On to `Cc1cccc(C[C@@H]2NC(=O)[C@H](CC(=O)O)NC(=O)[C@H](Cc3ccc(C(=O)O)cc3)NC(=O)[C@H](Cc3ccc(F)cc3)NC(=O)CSC[C@@H](C(=O)N[C@@H](CCN)C(N)=O)NC(=O)[C@H](CCC(=O)O)NC(=O)[C@H](C(C)O)NC(=O)[C@H](CC3CCCCC3)NC(=O)[C@H](CCN)NC(=O)[C@@H](CC(C)C)NC(=O)[C@H](C)N(C)C(=O)[C@H](Cc3ccc(C(=O)O)cc3)NC(=O)[C@H](Cc3ccc(-c4ccccc4)cc3)NC(=O)[C@H](Cc3ccc(C(=O)O)cc3)NC2=O)c1` (stereo partly drawn) [Compound 2209] ({CH2CO}-[Phe(4-F)][Phe(4-COOH)]D[Phe(3-Me)][Phe(4-COOH)][Bip][Phe(4-COOH)][NMeA][dL][Dab][Cha][Thr(3ξ)]EC[Dab]-NH2; thioether N-14), for which the IC50 is 0.01 µM.

As for `COc1cccc(C[C@@H]2NC(=O)[C@H](Cc3ccccc3)NC(=O)CSC[C@@H](C(=O)NCC(N)=O)NC(=O)[C@H](CO)NC(=O)[C@H](C(C)C)NC(=O)[C@H](CC(C)C)NC(=O)[C@H](CC(N)=O)NC(=O)[C@@H](CC(C)C)NC(=O)[C@H](C)N(C)C(=O)[C@H](C(C)C)NC(=O)[C@H](Cc3ccc(-c4ccccc4)cc3)NC(=O)[C@H](CC(C)C)NC(=O)[C@H](Cc3c[nH]c4ccccc34)NC(=O)[C@H](CC(=O)O)NC2=O)c1` [Compound 1521] ({CH2CO}-F[Phe(3-OMe)]DWL[Bip]V[NMeA][dL]NLVSCG-NH2; thioether N-14), the half-maximal inhibitory concentration (IC50) turned out to be 0.07 µM.

With `CC(C)C[C@@H]1NC(=O)[C@H](Cc2c[nH]c3ccccc23)NC(=O)[C@H](CC(=O)O)NC(=O)[C@H](Cc2ccc(O)cc2)NC(=O)[C@H](Cc2ccccc2)NC(=O)CSC[C@@H](C(=O)N[C@@H](C)C(N)=O)NC(=O)[C@H](CO)NC(=O)[C@H](C(C)C)NC(=O)[C@H](CC(C)C)NC(=O)[C@H](CC(N)=O)NC(=O)[C@@H](CC(C)C)NC(=O)[C@H](C)N(C)C(=O)[C@H](C(C)C)NC(=O)[C@H](Cc2ccc(-c3ccccc3)cc2)NC1=O` [Compound 1745] ({CH2CO}-FYDWL[Bip]V[NMeA][dL]NLVSCA-NH2; thioether N-14), the half-maximal inhibitory concentration (IC50) was 0.02 µM.

Turning to `CC(C)C[C@@H]1NC(=O)[C@H](C)NC(=O)[C@@H](C)NC(=O)[C@H](C)N(C)C(=O)[C@H](CCC(=O)O)NC(=O)[C@H](Cc2ccc(-c3ccccc3)cc2)NC(=O)[C@H](CC(C)C)NC(=O)[C@H](Cc2c[nH]c3ccccc23)NC(=O)[C@H](CC(=O)O)NC(=O)[C@H](Cc2ccc(C(=O)O)cc2)NC(=O)[C@H](Cc2cccnc2)NC(=O)CSC[C@@H](C(=O)N[C@@H](C)C(N)=O)NC(=O)[C@H](CO)NC(=O)[C@H](C(C)C)NC1=O` [Compound 1786] ({CH2CO}-[3Pal][Phe(4-COOH)]DWL[Bip]E[NMeA][dA]ALVSCA-NH2; thioether N-14), the IC50 is 0.1 µM.

Turning to `CC(C)C[C@@H]1NC(=O)[C@H](CCN)NC(=O)[C@@H](CC(C)C)NC(=O)[C@H](C)N(C)C(=O)[C@H](CCCNC(=N)N)NC(=O)[C@H](Cc2ccc(-c3ccccc3)cc2)NC(=O)[C@H](C(C)C)NC(=O)[C@H](Cc2cccc(Cl)c2)NC(=O)[C@H](CC(=O)O)NC(=O)[C@H](Cc2ccc(OCC(=O)O)cc2)NC(=O)[C@H](CN)NC(=O)CSC[C@@H](C(=O)N[C@@H](C)C(N)=O)NC(=O)[C@H]([C@@H](C)O)NC(=O)[C@H](C(C)C)NC1=O` [Compound 1458] ({CH2CO}-[Dap]Y(Carboxymethyl)D[Phe(3-Cl)]V[Bip]R[NMeA][dL][Dab]LVTCA-NH2; thioether N-14), the IC50 was 0.04 µM.

Regarding `CC(C)C[C@@H]1NC(=O)[C@H](CCCNC(=N)N)NC(=O)[C@@H](CC(C)C)NC(=O)[C@H](C)N(C)C(=O)[C@H](CCCNC(=N)N)NC(=O)[C@H](Cc2ccc(-c3ccccc3)cc2)NC(=O)[C@H](C(C)C)NC(=O)[C@H](Cc2cccc(F)c2)NC(=O)[C@H](CC(=O)O)NC(=O)[C@H](Cc2ccc(O)cc2)NC(=O)[C@H](CC(N)=O)NC(=O)CSC[C@@H](C(=O)N[C@@H](C)C(N)=O)NC(=O)[C@H]([C@@H](C)O)NC(=O)[C@H](C(C)C)NC1=O` [Compound 1199] ({CH2CO}-NYD[Phe(3-F)]V[Bip]R[NMeA][dL]RLVTCA-NH2; thioether N-14), the IC50 is 0.45 µM.
